Test system: MV-4-11 cells
Test: Gene expression microarray analysis (Affymetrix PrimeView) and GSEA
Type: cell-based, human
Design: RFU PODN (11730768_x_at) / Fold change /veh PODN (11730768_x_at) / RFU LINC00158 (11744669_a_at) / Fold change /veh LINC00158 (11744669_a_at) / RFU DUSP10 (11751237_a_at) / Fold change /veh DUSP10 (11751237_a_at) / RFU ID3 (11757404_x_at) / Fold change /veh ID3 (11757404_x_at) / RFU PLEKHG5 (11737974_s_at) / Fold change /veh PLEKHG5 (11737974_s_at) / RFU LRRC4B (11730491_at) / Fold change /veh LRRC4B (11730491_at) / RFU GIMAP4 (11747438_a_at) / Fold change /veh GIMAP4 (11747438_a_at) / RFU KRT8 (11758183_x_at) / Fold change /veh KRT8 (11758183_x_at) / RFU CNN1 (11734310_a_at) / Fold change /veh CNN1 (11734310_a_at) / RFU VPS37D (11726825_at) / Fold change /veh VPS37D (11726825_at) / RFU C10orf10 (11716522_x_at) / Fold change /veh C10orf10 (11716522_x_at) / RFU KIR2DL2 /// KIR2DL4 /// KIR2DL5A /// KIR2DL5B /// KIR2DS1 /// KIR2DS2 /// KIR2DS3 /// KIR2DS4 /// KIR3DL3 /// KIR3DL3 /// KIR3DS1 (11738374_at) / Fold change /veh KIR2DL2 /// KIR2DL4 /// KIR2DL5A /// KIR2DL5B /// KIR2DS1 /// KIR2DS2 /// KIR2DS3 /// KIR2DS4 /// KIR3DL3 /// KIR3DL3 /// KIR3DS1 (11738374_at) / RFU C1QL1 (11718748_at) / Fold change /veh C1QL1 (11718748_at) / RFU TMPRSS4 (11747572_a_at) / Fold change /veh TMPRSS4 (11747572_a_at) / RFU HAMP (11756126_x_at) / Fold change /veh HAMP (11756126_x_at) / RFU RNFT2 (11725882_a_at) / Fold change /veh RNFT2 (11725882_a_at) / RFU NR4A2 (11747474_a_at) / Fold change /veh NR4A2 (11747474_a_at) / RFU ABCC12 (11746883_a_at) / Fold change /veh ABCC12 (11746883_a_at) / RFU TMEM136 (11760407_x_at) / Fold change /veh TMEM136 (11760407_x_at) / RFU CLDN22 /// WWC2 (11732394_at) / Fold change /veh CLDN22 /// WWC2 (11732394_at) / RFU HLA-DPB1 (11760878_x_at) / Fold change /veh HLA-DPB1 (11760878_x_at) / RFU SPINT1 (11716480_a_at) / Fold change /veh SPINT1 (11716480_a_at) / RFU GAP43 (11754022_s_at) / Fold change /veh GAP43 (11754022_s_at) / RFU A4GNT (11735810_at) / Fold change /veh A4GNT (11735810_at) / RFU PRB3 (11715151_x_at) / Fold change /veh PRB3 (11715151_x_at) / RFU TUBB4B (11761932_at) / Fold change /veh TUBB4B (11761932_at) / RFU CAPN14 (11732068_a_at) / Fold change /veh CAPN14 (11732068_a_at) / RFU TMCC2 (11721928_a_at) / Fold change /veh TMCC2 (11721928_a_at) / RFU IRGQ (11745062_a_at) / Fold change /veh IRGQ (11745062_a_at) / RFU FAM174B (11720279_a_at) / Fold change /veh FAM174B (11720279_a_at) / RFU TMPRSS4 (11748680_a_at) / Fold change /veh TMPRSS4 (11748680_a_at) / RFU FAM212B (11763350_a_at) / Fold change /veh FAM212B (11763350_a_at) / RFU PLEKHG5 (11743358_a_at) / Fold change /veh PLEKHG5 (11743358_a_at) / RFU ZSCAN30 (11745921_a_at) / Fold change /veh ZSCAN30 (11745921_a_at) / RFU CMKLR1 (11741424_a_at) / Fold change /veh CMKLR1 (11741424_a_at) / RFU LOC101060620 /// MAPK8IP1 (11723275_at) / Fold change /veh LOC101060620 /// MAPK8IP1 (11723275_at) / RFU SPTSSB (11747773_x_at) / Fold change /veh SPTSSB (11747773_x_at) / RFU PRSS12 (11739890_at) / Fold change /veh PRSS12 (11739890_at) / RFU BIN1 (11741810_x_at) / Fold change /veh BIN1 (11741810_x_at) / RFU WNT11 (11732464_a_at) / Fold change /veh WNT11 (11732464_a_at) / RFU C10orf10 (11716521_a_at) / Fold change /veh C10orf10 (11716521_a_at) / RFU C5orf56 (11738089_at) / Fold change /veh C5orf56 (11738089_at) / RFU CYB561 (11721691_x_at) / Fold change /veh CYB561 (11721691_x_at) / RFU ANKRD19P (11752326_a_at) / Fold change /veh ANKRD19P (11752326_a_at) / RFU OR2T12 /// OR2T33 /// OR2T8 (11738714_s_at) / Fold change /veh OR2T12 /// OR2T33 /// OR2T8 (11738714_s_at) / RFU VCAN (11748164_a_at) / Fold change /veh VCAN (11748164_a_at) / RFU JSRP1 (11732532_at) / Fold change /veh JSRP1 (11732532_at) / RFU KRTAP10-11 (11738290_x_at) / Fold change /veh KRTAP10-11 (11738290_x_at) / RFU MYO3A (11730013_a_at) / Fold change /veh MYO3A (11730013_a_at) / RFU EBF3 (11725865_a_at) / Fold change /veh EBF3 (11725865_a_at) / RFU CAMK2N1 (11719241_x_at) / Fold change /veh CAMK2N1 (11719241_x_at) / RFU C5orf56 (11738088_a_at) / Fold change /veh C5orf56 (11738088_a_at) / RFU OLFML3 (11715873_a_at) / Fold change /veh OLFML3 (11715873_a_at) / RFU LOC100653217 /// NTM (11731650_a_at) / Fold change /veh LOC100653217 /// NTM (11731650_a_at) / RFU MAPK11 (11762145_a_at) / Fold change /veh MAPK11 (11762145_a_at) / RFU FIZ1 (11724087_x_at) / Fold change /veh FIZ1 (11724087_x_at) / RFU OASL (11726364_x_at) / Fold change /veh OASL (11726364_x_at) / RFU SOX15 (11748057_x_at) / Fold change /veh SOX15 (11748057_x_at) / RFU CD79A (11719716_a_at) / Fold change /veh CD79A (11719716_a_at) / RFU HIST1H1D (11736915_at) / Fold change /veh HIST1H1D (11736915_at) / RFU CASKIN2 (11723855_a_at) / Fold change /veh CASKIN2 (11723855_a_at) / RFU LOC730098 (11760151_x_at) / Fold change /veh LOC730098 (11760151_x_at) / RFU OR4N2 (11742367_at) / Fold change /veh OR4N2 (11742367_at) / RFU PRRT2 (11749266_a_at) / Fold change /veh PRRT2 (11749266_a_at) / RFU SNX32 (11753110_a_at) / Fold change /veh SNX32 (11753110_a_at) / RFU CDHR5 (11726645_a_at) / Fold change /veh CDHR5 (11726645_a_at) / RFU RCAN1 (11760418_a_at) / Fold change /veh RCAN1 (11760418_a_at) / RFU FAM167A (11723789_a_at) / Fold change /veh FAM167A (11723789_a_at) / RFU FAM26E (11764081_at) / Fold change /veh FAM26E (11764081_at) / RFU ISYNA1 (11749810_s_at) / Fold change /veh ISYNA1 (11749810_s_at) / RFU ACY1 (11761880_at) / Fold change /veh ACY1 (11761880_at) / RFU 11764098_at / Fold change /veh 11764098_at / RFU SAMD14 (11745864_x_at) / Fold change /veh SAMD14 (11745864_x_at) / RFU NPB (11741838_a_at) / Fold change /veh NPB (11741838_a_at) / RFU TMPRSS6 (11731388_a_at) / Fold change /veh TMPRSS6 (11731388_a_at) / RFU KRTAP10-2 (11738614_at) / Fold change /veh KRTAP10-2 (11738614_at) / RFU ARHGAP8 /// PRR5-ARHGAP8 (11727945_x_at) / Fold change /veh ARHGAP8 /// PRR5-ARHGAP8 (11727945_x_at) / RFU KRTAP5-7 /// NADSYN1 (11734609_at) / Fold change /veh KRTAP5-7 /// NADSYN1 (11734609_at) / RFU RASL12 (11751679_a_at) / Fold change /veh RASL12 (11751679_a_at) / RFU CDKN2B (11736163_a_at) / Fold change /veh CDKN2B (11736163_a_at) / RFU PRF1 (11729649_at) / Fold change /veh PRF1 (11729649_at) / RFU, ZNF638 /// ZNF638-IT1 / Fold change vs veh, ZNF638 /// ZNF638-IT1 / RFU, PANK3 / Fold change vs veh, PANK3 / RFU, SH3YL1 / Fold change vs veh, SH3YL1 / RFU, ZEB2 / Fold change vs veh, ZEB2 / RFU, NRIP1 / Fold change vs veh, NRIP1 / RFU, PTTG1IP / Fold change vs veh, PTTG1IP / RFU, CAPN2 / Fold change vs veh, CAPN2 / RFU, MED14 / Fold change vs veh, MED14 / RFU, SNORA58 / Fold change vs veh, SNORA58 / RFU, C1orf63 / Fold change vs veh, C1orf63 / RFU, LRRFIP1 / Fold change vs veh, LRRFIP1 / RFU, NDUFAF7 / Fold change vs veh, NDUFAF7 / RFU, SLC12A2 / Fold change vs veh, SLC12A2 / RFU, IBTK / Fold change vs veh, IBTK / RFU, ESF1 / Fold change vs veh, ESF1 / Fold change vs veh, TMEM50B / RFU, TAOK1 / Fold change vs veh, TAOK1 / RFU, ACBD3 / Fold change vs veh, ACBD3 / RFU, TMA16 / Fold change vs veh, TMA16 / RFU, RWDD3 / Fold change vs veh, RWDD3 / RFU, BCAT1 / Fold change vs veh, BCAT1 / RFU, EDEM3 / Fold change vs veh, EDEM3 / RFU, TMEM33 / Fold change vs veh, TMEM33 / RFU, WDR75 / Fold change vs veh, WDR75 / RFU, AHCTF1 / Fold change vs veh, AHCTF1 / RFU, TFRC / Fold change vs veh, TFRC / RFU, ZDHHC17 / Fold change vs veh, ZDHHC17 / RFU, NOM1 / Fold change vs veh, NOM1 / RFU, ARL8B / Fold change vs veh, ARL8B / RFU, ZBTB11 / Fold change vs veh, ZBTB11 / RFU, TAMM41 / Fold change vs veh, TAMM41 / RFU, KIAA1704 /// LOC100996395 / Fold change vs veh, KIAA1704 /// LOC100996395 / RFU, ING1 / Fold change vs veh, ING1 / RFU, TRMT61B / Fold change vs veh, TRMT61B / RFU, FUBP3 / Fold change vs veh, FUBP3 / RFU, TP53 / Fold change vs veh, TP53 / RFU, TNKS2 / Fold change vs veh, TNKS2 / RFU, ZFP14 / Fold change vs veh, ZFP14 / RFU, ACTR2 / Fold change vs veh, ACTR2 / RFU, PPP3R1 / Fold change vs veh, PPP3R1 / RFU, PIK3R1 / Fold change vs veh, PIK3R1 / RFU, HNRNPA1 / Fold change vs veh, HNRNPA1 / RFU, RNF170 / Fold change vs veh, RNF170 / RFU, ZNF28 / Fold change vs veh, ZNF28 / RFU, RNGTT / Fold change vs veh, RNGTT / RFU, OGT / Fold change vs veh, OGT / RFU, BRD1 / Fold change vs veh, BRD1 / RFU, MARS / Fold change vs veh, MARS / RFU, ZNF655 / Fold change vs veh, ZNF655 / RFU, FAHD1 / Fold change vs veh, FAHD1 / RFU, BDP1 / Fold change vs veh, BDP1 / RFU, LRRCC1 / Fold change vs veh, LRRCC1 / RFU, ARID1A / Fold change vs veh, ARID1A / RFU, ZNF146 / Fold change vs veh, ZNF146 / RFU, ZNF330 / Fold change vs veh, ZNF330 / RFU, GPN3 / Fold change vs veh, GPN3 / RFU, C9orf123 / Fold change vs veh, C9orf123 / RFU, N4BP2L2 / Fold change vs veh, N4BP2L2 / RFU, ARFIP1 / Fold change vs veh, ARFIP1 / RFU, FAM179B / Fold change vs veh, FAM179B / RFU, BCL10 / Fold change vs veh, BCL10 / RFU, UHRF1BP1L / Fold change vs veh, UHRF1BP1L / RFU, BET1 / Fold change vs veh, BET1 / RFU, CNOT2 / Fold change vs veh, CNOT2 / RFU, ZNF268 / Fold change vs veh, ZNF268 / Fold change vs veh, ZNF507 / RFU, DGCR2 / Fold change vs veh, DGCR2 / RFU, WDSUB1 / Fold change vs veh, WDSUB1 / Fold change vs veh, HSP90B1 /// MIR3652 / RFU, ADSS / Fold change vs veh, ADSS / RFU, GK / Fold change vs veh, GK / RFU, ZNF148 / Fold change vs veh, ZNF148 / RFU, TAF9 / Fold change vs veh, TAF9 / RFU, SLC1A5 / Fold change vs veh, SLC1A5 / RFU, SLMO2 / Fold change vs veh, SLMO2 / RFU, ABCC4 / Fold change vs veh, ABCC4 / RFU, LOC101060439 /// RAP1B / Fold change vs veh, LOC101060439 /// RAP1B / RFU, RFX7 / Fold change vs veh, RFX7 / RFU, GTPBP10 / Fold change vs veh, GTPBP10 / RFU, CNEP1R1 / Fold change vs veh, CNEP1R1 / RFU, BIVM-ERCC5 /// ERCC5 / Fold change vs veh, BIVM-ERCC5 /// ERCC5 / RFU, ILF3 / Fold change vs veh, ILF3 / RFU 11762660_at / Fold change /veh 11762660_at / RFU VCAN (11757783_s_at) / Fold change /veh VCAN (11757783_s_at) / RFU DDX43 (11728927_at) / Fold change /veh DDX43 (11728927_at) / RFU KRT8 (11758188_x_at) / Fold change /veh KRT8 (11758188_x_at) / RFU NKD1 (11759106_at) / Fold change /veh NKD1 (11759106_at) / RFU SRD5A1 (11742802_a_at) / Fold change /veh SRD5A1 (11742802_a_at) / RFU TPSAB1 /// TPSB2 (11721975_s_at) / Fold change /veh TPSAB1 /// TPSB2 (11721975_s_at) / RFU GSTM3 (11746129_a_at) / Fold change /veh GSTM3 (11746129_a_at) / RFU IL23R (11737362_x_at) / Fold change /veh IL23R (11737362_x_at) / RFU TMEM51 (11727254_a_at) / Fold change /veh TMEM51 (11727254_a_at) / RFU PIWIL2 (11732686_x_at) / Fold change /veh PIWIL2 (11732686_x_at) / RFU ORM1 (11744905_x_at) / Fold change /veh ORM1 (11744905_x_at) / RFU CCDC152 (11743942_at) / Fold change /veh CCDC152 (11743942_at) / RFU ECM1 (11717891_a_at) / Fold change /veh ECM1 (11717891_a_at) / RFU IL23R (11748794_a_at) / Fold change /veh IL23R (11748794_a_at) / RFU TNFAIP8L3 (11732012_x_at) / Fold change /veh TNFAIP8L3 (11732012_x_at) / RFU MBOAT4 (11741988_at) / Fold change /veh MBOAT4 (11741988_at) / RFU 11764193_at / Fold change /veh 11764193_at / RFU TMEM53 (11763286_at) / Fold change /veh TMEM53 (11763286_at) / RFU MAGEB2 (11727129_at) / Fold change /veh MAGEB2 (11727129_at) / RFU TMEM200A (11744735_a_at) / Fold change /veh TMEM200A (11744735_a_at) / RFU CCDC152 (11751479_a_at) / Fold change /veh CCDC152 (11751479_a_at) / RFU FAM211A (11726209_a_at) / Fold change /veh FAM211A (11726209_a_at) / RFU RGS16 (11746705_a_at) / Fold change /veh RGS16 (11746705_a_at) / RFU VCAN (11755009_s_at) / Fold change /veh VCAN (11755009_s_at) / RFU RHOB (11743442_s_at) / Fold change /veh RHOB (11743442_s_at) / RFU RGS16 (11720943_a_at) / Fold change /veh RGS16 (11720943_a_at) / RFU RGS16 (11720944_at) / Fold change /veh RGS16 (11720944_at) / RFU, VPS4B / Fold change vs veh, VPS4B / RFU, CREB1 / Fold change vs veh, CREB1 / RFU, DNAJC13 / Fold change vs veh, DNAJC13 / RFU, GNAQ / Fold change vs veh, GNAQ / RFU, CDK5R1 / Fold change vs veh, CDK5R1 / RFU, ZRANB3 / Fold change vs veh, ZRANB3 / RFU, CUL4A / Fold change vs veh, CUL4A / RFU, CCNY / Fold change vs veh, CCNY / RFU, UFL1 / Fold change vs veh, UFL1 / RFU, COG3 / Fold change vs veh, COG3 / RFU, DIAPH2 / Fold change vs veh, DIAPH2 / RFU, SKA2 / Fold change vs veh, SKA2 / RFU, AFF3 / Fold change vs veh, AFF3 / RFU, LMF1 / Fold change vs veh, LMF1 / RFU, IPO11 / Fold change vs veh, IPO11 / RFU, DFFB / Fold change vs veh, DFFB / RFU, FOXP1 / Fold change vs veh, FOXP1 / RFU, CARD8 / Fold change vs veh, CARD8 / RFU, STRN3 / Fold change vs veh, STRN3 / RFU, ADK / Fold change vs veh, ADK / RFU, RASSF2 / Fold change vs veh, RASSF2 / RFU, WIPF1 / Fold change vs veh, WIPF1 / RFU, LARP1B / Fold change vs veh, LARP1B / RFU, RASA1 / Fold change vs veh, RASA1 / RFU, RB1 / Fold change vs veh, RB1 / RFU, PPFIA1 / Fold change vs veh, PPFIA1 / RFU, MAT2A / Fold change vs veh, MAT2A / RFU, CCT5 / Fold change vs veh, CCT5 / RFU, WDR92 / Fold change vs veh, WDR92 / RFU, CUX1 / Fold change vs veh, CUX1 / RFU, TTC7A / Fold change vs veh, TTC7A / RFU, TMEM135 / Fold change vs veh, TMEM135 / RFU, DEPTOR / Fold change vs veh, DEPTOR / RFU, CPM / Fold change vs veh, CPM / RFU, DNAJB6 / Fold change vs veh, DNAJB6 / RFU, CACNA2D3 / Fold change vs veh, CACNA2D3 / RFU, DTX4 / Fold change vs veh, DTX4 / RFU, TFCP2 / Fold change vs veh, TFCP2 / RFU, GMCL1 /// GMCL1P1 / Fold change vs veh, GMCL1 /// GMCL1P1 / RFU, AEBP2 / Fold change vs veh, AEBP2 / RFU, SNHG1 /// SNORD22 /// SNORD25 /// SNORD26 /// SNORD27 /// SNORD28 /// SNORD29 /// SNORD31 / Fold change vs veh, SNHG1 /// SNORD22 /// SNORD25 /// SNORD26 /// SNORD27 /// SNORD28 /// SNORD29 /// SNORD31 / Fold change (Aza/veh), C12orf56 (ProbeSet 11735607_a_at) / Fold change (ACY-1035/veh), C12orf56 (ProbeSet 11735607_a_at) / Fold change (Aza/veh), FGFR1OP (ProbeSet 11751329_s_at) / Fold change (ACY-1035/veh), FGFR1OP (ProbeSet 11751329_s_at) / Fold change (Aza/veh), VPS36 (ProbeSet 11739960_a_at) / Fold change (ACY-1035/veh), VPS36 (ProbeSet 11739960_a_at) / RFU SYPL1 (11715823_x_at) / Fold change /veh SYPL1 (11715823_x_at) / RFU IGFBP7 (11715501_s_at) / Fold change /veh IGFBP7 (11715501_s_at) / RFU REEP3 (11722064_at) / Fold change /veh REEP3 (11722064_at) / RFU IGLL1 (11728026_x_at) / Fold change /veh IGLL1 (11728026_x_at): dose or concentration left out as unconfirmed
Settings: MV-4-11 cells, 48 hours

Compound: Nc1ncn([C@@H]2O[C@H](CO)[C@@H](O)[C@H]2O)c(=O)n1 [azacitidine]
- Fold change /veh KIR2DL2 /// KIR2DL4 /// KIR2DL5A /// KIR2DL5B /// KIR2DS1 /// KIR2DS2 /// KIR2DS3 /// KIR2DS4 /// KIR3DL3 /// KIR3DL3 /// KIR3DS1 (11738374_at): 0.92

Reference: PMC5218480 (PLoS ONE, 2017)
